This note sets out measurements from a melting point compilation (Tetko et al.; mined from patent text by program, amines drawn as free bases though some values may be those of a salt).

`Fc1cc(Cl)c(OCC2=CCCOC2)cc1-n1nc2c(c1Cl)CCCC2`: the melting point lay in the range of 90 to 92 °C.

In turn, `CC1(C)CCC(C)(C)c2cc(-c3cc(-c4ccc(C(=O)O)cc4)ccc3OCCCN)ccc21` gave a melting point of 243 °C. Then `CN1CCC(C2(O)c3ccccc3COc3cc(Cl)ccc32)CC1` (stereo not drawn), with 199 to 200 °C; and `CCNC(=O)c1sc(-n2ccc(OCc3ccccc3)cc2=O)cc1C`, with 158 to 160 °C. Then `COc1cc2cc(C(=O)OCc3ccccc3)n(CC(=O)OC(C)(C)C)c2cn1`, with 110 °C. Then `COc1ccc(-c2coc3cc(O)ccc3c2=O)c(O)c1`, with 210 to 212 °C; and `Cn1nc(-c2ccc(S(C)(=O)=O)cc2)c(-c2ccc(F)cc2)c1C(F)(F)F`, with 166 to 169 °C; and `CCCCCCCCCCCCCCCCCCc1ccc(S(=O)(=O)Cl)cc1`, with 43 to 44 °C. The compound `CCCC[C@H](NC(=O)[C@H](CC(C)C)NC(=O)c1cc2cccc(F)c2o1)C(=O)CSCc1ccco1` gave a melting point of 102 to 103 °C. Then `CCOC(=O)Nc1csc2cc(OC)ccc12`, with 88 °C; and `c1ccc(C(NCc2ccc(CNC(c3ccccc3)c3ccccc3)cc2)c2ccccc2)cc1`, with 92 to 94 °C. Then `O=c1[nH]c2scc(Br)c2[nH]c1=O`, with 295 to 296 °C; and `CC(C)(C)OC(=O)N1CCC(n2nc(-c3c(-c4ccccc4)nn4ccccc34)ccc2=O)CC1`, with 152 to 153 °C; and `O=C(CCn1cnc2c(=O)[nH]cnc21)NCCO`, with 225 to 229 °C.

The compound `Cc1c(F)cccc1Cc1c(-c2ccccc2)c2cccnn2c1C(=O)N1CCNCC1` had a melting point of 140 to 142 °C. Then `COc1cc2c(CCN)c[nH]c2cc1F`, with 114 to 117 °C.

The compound `NS(=O)(=O)c1ccccc1-c1cnco1` displayed a melting point of 157 to 163 °C.

As for `COc1cc2c(c3c1OC(C)(C)C3)C(c1ccn(CC(=O)Nc3cccnc3)c(=O)c1)=NC(C)(C)C2`, the melting point fell in the range of 251 to 253 °C.

The compound `CCCc1nnc2c(=O)n(C)c3ccc(Cl)cc3n12` displayed a melting point of 265 to 266 °C. Then `CCc1cc2c(-c3ccccc3Cl)c(N)cnc2s1`, with 87 to 88 °C; and `CCOC(=O)CN(C(=O)N1CCN(c2cc(C)cc(C)c2)CC1)c1cc(C(C)O)c(C)nc1OC` (stereo not drawn), with 68 to 70 °C; and `Cc1nc(-c2ccc(C(F)(F)F)cc2)oc1COc1ccc(CC(=O)O)cc1Cl`, with 189 to 191 °C. For `CCCOC(=O)c1cn(C(C)(C)C)c2ncc([N+](=O)[O-])cc12`, the melting point lay in the range of 116 to 120 °C. Then `CN(C=O)c1ccc(Cl)cc1C(=O)c1ccccc1`, with 93.5 to 94.5 °C; and `On1c(C(F)(F)F)nc2c(OCc3ccccc3)cc(Br)cc21`, with 211 to 214 °C; and `O=c1c(CCl)cc2cc([N+](=O)[O-])ccc2n1-c1ccccc1`, with 152 to 154 °C. Turning to `O=C1NCc2cccnc2N1c1ccccc1`, the melting point fell in the range of 269 to 271 °C. Then `N=C(N)c1ccc2c(c1)C(CCNC(=O)c1ccc(-c3ccccn3)s1)CO2` (stereo not drawn), with 54 to 56 °C; and `CC(O)c1cc2c(cn1)CCCC2` (stereo not drawn), with 44 to 45 °C.

Compound `COc1ccc(CC2C(=O)N(Cc3ccccc3)c3ccccc3N=C2C)cc1` (stereo not drawn) came in with a melting point of 136 to 137 °C. Then `Cc1c(C(=O)C2C(=O)CCCC2=O)ccc(S(C)(=O)=O)c1S(C)(=O)=O`, with 301 to 302 °C; and `CS(=O)(=O)c1ccc(-c2sc(-c3ccccc3Cl)nc2-c2ccccc2F)cc1`, with 163 to 166 °C; and `O=C(c1ccc2ncccc2c1)c1ccc2nc(Cl)nc(-c3cccc(Cl)c3)c2c1`, with 170 °C. Then `COc1ccccc1CN[C@H]1CCCN(CCCCCc2ccccc2)[C@H]1c1ccccc1` (relative stereo), with 109 °C. Then `CCOC(=O)c1ccncn1`, with 36.8 °C; and `CCc1cc(=O)c2nc(OC(C)C)c(Cl)cc2[nH]1`, with 231 to 235 °C. `O=C(NCc1ccccc1)c1ccnc(NC(=O)c2cccc(C(F)(F)F)c2)c1` yielded a melting point of 87 to 88 °C. Then `Cc1cc(OCC(=O)Nc2cc(C(=O)O)ccc2Cl)ccc1C(C)C`, with 174 to 175 °C. Compound `COc1ccc(CCNC(=O)CCc2ccc(Cl)cc2)cc1C` showed a melting point of 142 to 144 °C. In turn, `Cc1c(F)cnc(N)c1F` showed a melting point of 92 to 93 °C. Then `O=C(c1cccs1)c1cnn2c(-c3cccc(NC(=O)C4CCNCC4)c3)ccnc12`, with 159 to 161 °C; and `COc1ccc2c(c1C)OC(C)(C)CC2=O`, with 105 to 107 °C. Then `CC(=O)Nc1cccc2c1CCC(NC(C)c1ccccc1)C2` (stereo not drawn), with 158 °C. Then `Cc1ccc(-c2ncc(N(C)CCCCO)nc2-c2ccc(C)cc2)cc1`, with 94 to 96 °C; and `COC(=O)c1nc(Cl)c(N2CCCC2)nc1N`, with 245 to 248 °C; and `Cc1cc2c(s1)S(=O)(=O)N=C(NC(C)C)N2`, with 272 to 273 °C.

In turn, `NC(=O)CCN1CCN(C(=O)c2cc(C(F)(F)F)cc(C(F)(F)F)c2)[C@H](Cc2c[nH]c3ccccc23)C1` registered a melting point of 80 to 100 °C. Then `COc1ccc(C(O)c2ccccc2OC)cn1` (stereo not drawn), with 83 to 84 °C; and `O=C1c2c(ccc(O)c2O)CC1C(=O)c1c(F)c(F)c(F)c(F)c1F` (stereo not drawn), with 114 to 115 °C. Then `CC(C)OC(=O)c1cc(N)n(C)n1`, with 86 to 87 °C; and `COc1cc2c(cc1OCc1ccccc1)CCN(Cc1cccc(OC)c1OC)C2`, with 106 to 107 °C. Then `Cc1c(CN2C(=O)c3ccccc3C2=O)cccc1C(F)(F)C(F)(F)c1ccccc1`, with 135 to 137 °C; and `CCCCN(C)c1nccc2ccc(C(=O)N[C@@H](Cc3cc(F)cc(F)c3)[C@H](O)CNCc3cccc(CC)c3)cc12`, with 120 to 121 °C. `COc1ccc(CC(=O)c2c(O)cc(OC)cc2OC)c(OC)c1` came in with a melting point of 116 to 119 °C. Then `O=C(O)C1=Cc2cc(Cl)c(Oc3cccc(Cl)c3)cc2OC1C(F)(F)F` (stereo not drawn), with 174 to 176 °C. `CC(CCC(=O)NC(C)(C)CO)C1CCC2C3C(=O)CC4CC(O)CCC4(C)C3CC(O)C12C` (stereo not drawn) had a melting point of 229 to 231 °C.

The compound `COc1ccc(-c2csc(NC(=O)COc3ccc(Cl)cc3Cl)n2)cc1` gave a melting point of 135 to 139 °C. Then `Cc1ccc(Cn2ncnc2C(NS(=O)(=O)c2ccc(Cl)s2)C(C)C)cc1` (stereo not drawn), with 124 to 125 °C. Then `NC1CCc2cc3c(cc2C1)OCC3` (stereo not drawn), with 60 °C. Then `C=C(C)C(=O)OCCCCCCOc1ccc(C=Cc2ccc([N+](=O)[O-])cc2)cc1`, with 90 to 95 °C; and `Cn1cc(-c2ccc(C(=O)O)cn2)cn1`, with 262 to 264 °C. The compound `C#CC[C@H](c1nc2cc(Cl)ccc2c(=O)n1Nc1ccccc1)N(CCCN)C(=O)c1cccc(Cl)c1F` yielded a melting point of 101 to 103 °C. Then `Cc1ccc(C(=S)c2cc(F)cc3c2NC(=O)C3)cc1`, with 168 to 174 °C; and `CC(=O)Nc1nc2ccc(S(=O)(=O)n3c(CCCC(=O)O)cc4nc(Cl)ccc43)cc2s1`, with 270 °C. Then `Cn1nc(N)nc1NCCCOc1cccc(CNC2CCCCC2)c1`, with 102 to 103 °C; and `CC(C)(CO)NS(=O)(=O)c1cccc(NC(=O)c2cnn3c(C(F)(F)F)cc(-c4ccc(Cl)cc4)nc23)c1`, with 271 °C. Then `OCCOCC(O)c1ccc2ccccc2c1` (stereo not drawn), with 105 to 106 °C; and `CCCCCCCCCCCc1nnc2n1-c1sc(CC)cc1C(c1ccc(O)cc1)OC2` (stereo not drawn), with 96 to 98 °C; and `CCCCOc1ccc2c(c1)C(N(C)S(C)(=O)=O)C(O)C(C)(C)O2` (stereo not drawn), with 138 to 140 °C. For the compound `Cc1nn(CCO)c(C)c1Sc1ccc(Cl)cc1`, the melting point was 88.9 to 90.3 °C. Then `C=C(C)n1c(=O)n(CCCCl)c2ccccc21`, with 115 °C; and `CC(=NNc1ccc(C2=NNC(=O)CC2C)cc1)c1ccc(O)cc1O` (stereo not drawn), with 259 to 261 °C; and `COc1ccc(S(=O)(=O)N(Cc2cccnc2)c2c(C(=O)NO)cnc3c2c(C)nn3C)cc1`, with 202 to 204 °C. Then `CC(=O)C1CCC2C3CCC4CC(OC(=O)OCC(Cl)(Cl)Cl)CCC4(C)C3C(NC(=O)OCC(Cl)(Cl)Cl)CC12C` (stereo not drawn), with 174 to 176 °C; and `COc1ccc(-c2ccc3ccc(OC)cc3c2)cc1`, with 154 °C.

`Oc1cc2c(cc1CCCCSc1cccnc1)OCC2` had a melting point of 130 to 131 °C.

As to `O=C1c2ccccc2C(=O)N1Cc1ccc(C2=COC(c3cc(Cl)cc(Cl)c3)(C(F)(F)F)C2)cc1Cl` (stereo not drawn), the melting point turned out to be 99.7 °C. Then `Cc1oc(=O)c(Nc2ccccc2)nc1Cl`, with 133 to 137 °C; and `CC1=CC(OCc2ccccc2)(OC(=O)c2ccc(Br)c(OCCn3cnnn3)c2C)N(C)N1` (stereo not drawn), with 122 to 125 °C. Then `Cc1ccc(C(=O)NC(CC(C)C)C(=O)O)c(SSc2cc(C)ccc2C(=O)NC(CC(C)C)C(=O)O)c1` (stereo not drawn), with 216 to 218 °C. Then `CCCC1=NN(c2ccc(C(=O)O)cc2)C(=O)C1=CNc1ccccc1CC`, with 254 °C; and `CC(C)(O)c1ccc(-c2ccc(C(CC3CCOCC3)c3ccc(S(=O)(=O)C4CC4)cc3)[nH]2)nc1` (stereo not drawn), with 112 to 114 °C. `CC(C)CCC(=O)NC(C)(Cc1c[nH]c2ccccc12)C(=O)NC(Cc1ccccc1)C(N)=O` (racemic) gave a melting point of 170 to 171 °C.

`CS(=O)C=C1C(C)(C)CCC1(C)C` (stereo not drawn) showed a melting point of 74.7 °C. Then `O=S1N=C(NCCCN(Cc2ccsc2)c2ccccn2)C(NCc2ccncc2)=N1` (stereo not drawn), with 155 to 157 °C; and `COc1cc(CO)cc2c(Br)ccc(OC(C)C)c12`, with 120 to 121 °C; and `Cc1ccc(-n2cnc3nncc-3c2N)cc1`, with more than 300 °C. Then `O=C(c1nccs1)c1cnn2c(-c3ccncc3)ccnc12`, with 323 to 325 °C.
